Consider 17 compounds from US9931347B2, “Pharmaceutical compound” (IOmet Pharma Ltd., priority 2013, dated 2018).

The structures appear in SMILES notation.

T1 sequence (P48775 whole entry): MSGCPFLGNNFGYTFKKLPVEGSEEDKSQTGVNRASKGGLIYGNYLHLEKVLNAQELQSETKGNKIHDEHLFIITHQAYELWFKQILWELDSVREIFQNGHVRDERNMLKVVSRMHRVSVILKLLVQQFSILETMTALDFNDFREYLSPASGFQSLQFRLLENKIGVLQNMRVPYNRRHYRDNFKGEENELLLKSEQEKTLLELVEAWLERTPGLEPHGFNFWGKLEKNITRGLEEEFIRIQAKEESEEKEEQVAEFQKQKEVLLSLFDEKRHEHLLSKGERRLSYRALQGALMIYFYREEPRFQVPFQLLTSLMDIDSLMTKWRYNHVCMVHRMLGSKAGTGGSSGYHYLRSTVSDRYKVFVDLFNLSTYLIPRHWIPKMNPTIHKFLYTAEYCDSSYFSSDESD
Sequence of Recombinant human TDO (P48775 whole entry): as above

For one assay, the target named is Recombinant human TDO (Homo sapiens, UniProt P48775). In words: hTDO biochemical coupled assay. Conditions: 330 μM L-tryptophan, coupled with kynurenine formamidase. The method, boiled down:
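Recombinant human TDO with 330 μM L-tryptophan in 50 mM KPO4 pH 7.0 containing EGTA, EDTA, Triton X100, ascorbate, methylene blue, catalase and kynurenine formamidase (KynB), 17 min at room temperature. Stopped with Ehrlich's reagent, 5 min, then kynurenine fluorescence read (Ex475, Em530).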
`CS(=O)(=O)N1CC=C(c2c[nH]c3cc(F)ccc23)CC1` [Compound 103]: the “hTDO biochemical assay pIC50” value is given as “++ (++ = pIC50 5.00-5.99)”.
For the compound `CC(=O)N1CC=C(c2c(C)[nH]c3ccccc23)CC1` [Compound 104], the “hTDO biochemical assay pIC50” value is “+ (+ = pIC50 4.00-4.99)”.
Still for that read-out and setting: the value for `CC(=O)N1CC=C(c2c[nH]c3ncccc23)CC1` [Compound 105] was “+ (+ = pIC50 4.00-4.99)”.
Still for that read-out and setting: the value for `CC(C)C(=O)N1CCC(c2c[nH]c3ccccc23)CC1` [Compound 106] was “+− (+− = pIC50 <4.00)”; that for `NS(=O)(=O)N1CC=C(c2c[nH]c3ccccc23)CC1` [Compound 162] was “+++ (+++ = pIC50 ≥6.00)”; that for `CC(C)OCC(=O)N1CC=C(c2c[nH]c3cc(F)ccc23)CC1` [Compound 163] was “++ (++ = pIC50 5.00-5.99)”.
Consider `NS(=O)(=O)N1CC=C(c2c[nH]c3cc(F)ccc23)CC1` [Compound 164], for which the “hTDO biochemical assay pIC50” value was “+++ (+++ = pIC50 ≥6.00)”.
Same read-out and setting: the value for `CC(=O)N1CC=C(c2c[nH]c3ccc(Cl)cc23)CC1` [Compound 165] was “+ (+ = pIC50 4.00-4.99)”; that for `CS(=O)(=O)N1CC=C(c2c[nH]c3ccc(Cl)cc23)CC1` [Compound 166] was “+ (+ = pIC50 4.00-4.99)”.
Consider `CC(=O)N1CC=C(c2c[nH]c3cc(F)c(F)cc23)CC1` [Compound 167], for which the “hTDO biochemical assay pIC50” value is “++ (++ = pIC50 5.00-5.99)”.
Same read-out and setting: the value for `CS(=O)(=O)N1CC=C(c2c[nH]c3cc(F)c(F)cc23)CC1` [Compound 168] was “++ (++ = pIC50 5.00-5.99)”; that for `CCn1ncc(S(=O)(=O)N2CCC3(CC2)C(=O)Nc2ccccc23)c1C` [Compound 173] was “+− (+− = pIC50 <4.00)”.
On the same count and under the same terms, then `CC(=O)N1CCC(c2c[nH]c3ccncc23)CC1` [Compound 174], with “+− (+− = pIC50 <4.00)”; and `CS(=O)(=O)N1CCC(c2c[nH]c3ccncc23)CC1` [Compound 175], with “+− (+− = pIC50 <4.00)”; and `CS(=O)(=O)N1CCC(c2c[nH]c3cnccc23)CC1` [Compound 176], with “+− (+− = pIC50 <4.00)”.
On the same count and under the same terms, the value for `CS(=O)(=O)N1CCC(C2C(=O)Nc3cc(F)ccc32)CC1` (centres unmarked) [Compound 178] was “+− (+− = pIC50 <4.00)”; that for `CC(=O)N1CCC(C2CNc3cc(F)ccc32)CC1` (centres unmarked) [Compound 179] was “+− (+− = pIC50 <4.00)”.

The next assay has as its target T1, TDO (A172 human glioblastoma cells) (Homo sapiens, UniProt P48775).
T1 construct: This assay utilised cancer cells which expressed either TDO or IDO; endogenous in cells; host or cells: A172 human glioblastoma cells
Nature of the assay: A172 Kynurenine cell based assay. The settings on record: 500 μM L-tryptophan, 48 hours, kynurenine by Erhlich's reagent. The method, boiled down:
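A172 glioblastoma cells (30,000/well) cultured at 37° C. in phenol red-free RPMI with 10% FCS, 2 mM L-glutamine and 500 μM L-tryptophan, with or without test compound. After 48 hours, kynurenine in the supernatant was read with Erhlich's reagent (5 min) as absorbance at 490 nm.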
`CS(=O)(=O)N1CC=C(c2c[nH]c3cc(F)ccc23)CC1` [Compound 103]: the “A172 Kynurenine cell based assay pIC50” value was “+++ (+++ = pIC50 ≥6.00)”.
Same read-out and setting: the value for `CC(=O)N1CC=C(c2c(C)[nH]c3ccccc23)CC1` [Compound 104] was “+− (+− = pIC50 <4.00)”.
On the same count and under the same terms, then `CC(=O)N1CC=C(c2c[nH]c3ncccc23)CC1` [Compound 105], with “+− (+− = pIC50 <4.00)”; and `CC(C)C(=O)N1CCC(c2c[nH]c3ccccc23)CC1` [Compound 106], with “+ (+ = pIC50 4.00-4.99)”.
On the same count and under the same terms, then `NS(=O)(=O)N1CC=C(c2c[nH]c3ccccc23)CC1` [Compound 162], with “+++ (+++ = pIC50 ≥6.00)”.
For the compound `CC(C)OCC(=O)N1CC=C(c2c[nH]c3cc(F)ccc23)CC1` [Compound 163], the “A172 Kynurenine cell based assay pIC50” value is “+++ (+++ = pIC50 ≥6.00)”.
The same measure, in the same setting: then `NS(=O)(=O)N1CC=C(c2c[nH]c3cc(F)ccc23)CC1` [Compound 164], with “+++ (+++ = pIC50 ≥6.00)”.
Still for that read-out and setting: then `CC(=O)N1CC=C(c2c[nH]c3ccc(Cl)cc23)CC1` [Compound 165], with “++ (++ = pIC50 5.00-5.99)”; and `CS(=O)(=O)N1CC=C(c2c[nH]c3ccc(Cl)cc23)CC1` [Compound 166], with “++ (++ = pIC50 5.00-5.99)”.
The same measure, in the same setting: the value for `CC(=O)N1CC=C(c2c[nH]c3cc(F)c(F)cc23)CC1` [Compound 167] was “++ (++ = pIC50 5.00-5.99)”; that for `CS(=O)(=O)N1CC=C(c2c[nH]c3cc(F)c(F)cc23)CC1` [Compound 168] was “+++ (+++ = pIC50 ≥6.00)”; that for `CCn1ncc(S(=O)(=O)N2CCC3(CC2)C(=O)Nc2ccccc23)c1C` [Compound 173] was “+ (+ = pIC50 4.00-4.99)”.
As for `CC(=O)N1CCC(c2c[nH]c3ccncc23)CC1` [Compound 174], the “A172 Kynurenine cell based assay pIC50” value is on record as “+ (+ = pIC50 4.00-4.99)”.
The same measure, in the same setting: the value for `CS(=O)(=O)N1CCC(c2c[nH]c3ccncc23)CC1` [Compound 175] was “+ (+ = pIC50 4.00-4.99)”.
Regarding `CS(=O)(=O)N1CCC(c2c[nH]c3cnccc23)CC1` [Compound 176], the “A172 Kynurenine cell based assay pIC50” value was “+ (+ = pIC50 4.00-4.99)”.
On the same count and under the same terms, the value for `CS(=O)(=O)N1CCC(C2C(=O)Nc3cc(F)ccc32)CC1` (centres unmarked) [Compound 178] was “+− (+− = pIC50 <4.00)”; that for `CC(=O)N1CCC(C2CNc3cc(F)ccc32)CC1` (centres unmarked) [Compound 179] was “+ (+ = pIC50 4.00-4.99)”.

The next assay deals with T2, IDO (SKOV3 human ovarian adenocarcinoma cells, IFN-γ induced) (Homo sapiens, UniProt P14902).
T2 construct: IDO expression was induced in the SKOV3 cells by the addition of 500 ng/ml IFN-γ; endogenous in cells; host or cells: SKOV3 human ovarian adenocarcinoma cells, induced with IFN-γ
T2 sequence (P14902 whole entry): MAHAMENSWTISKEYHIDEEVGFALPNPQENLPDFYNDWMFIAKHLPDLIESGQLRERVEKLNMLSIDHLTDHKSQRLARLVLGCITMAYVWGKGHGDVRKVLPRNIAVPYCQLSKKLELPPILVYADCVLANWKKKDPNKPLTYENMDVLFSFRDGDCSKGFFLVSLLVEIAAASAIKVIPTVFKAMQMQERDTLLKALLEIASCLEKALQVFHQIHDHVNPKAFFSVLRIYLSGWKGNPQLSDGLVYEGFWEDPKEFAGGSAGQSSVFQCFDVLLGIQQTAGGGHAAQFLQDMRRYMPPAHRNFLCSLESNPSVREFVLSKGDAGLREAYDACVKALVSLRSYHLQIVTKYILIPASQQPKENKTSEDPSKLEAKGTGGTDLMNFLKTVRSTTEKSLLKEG
Nature of the assay: SKOV3 Kynurenine cell based assay. Conditions: IDO induced by 500 ng/ml IFN-γ, 500 μM L-tryptophan, 48 hours. The method, boiled down:
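IFN-γ (500 ng/ml) induced IDO in SKOV3 cells, seeded at 40,000/well in phenol red-free RPMI with 10% FCS, 2 mM L-glutamine and 500 μM L-tryptophan. Cells were incubated with or without compound at 37° C for 48 h. Supernatant kynurenine was detected with Ehrlich's reagent.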
With `CS(=O)(=O)N1CC=C(c2c[nH]c3cc(F)ccc23)CC1` [Compound 103], the “SKOV3 Kynurenine cell based assay pIC50” value was “+ (+ = pIC50 4.00-4.99)”.
The same measure, in the same setting: the value for `CC(=O)N1CC=C(c2c(C)[nH]c3ccccc23)CC1` [Compound 104] was “+ (+ = pIC50 4.00-4.99)”; that for `CC(=O)N1CC=C(c2c[nH]c3ncccc23)CC1` [Compound 105] was “+ (+ = pIC50 4.00-4.99)”; that for `CC(C)C(=O)N1CCC(c2c[nH]c3ccccc23)CC1` [Compound 106] was “+− (+− = pIC50 <4.00)”.
On the same count and under the same terms, then `NS(=O)(=O)N1CC=C(c2c[nH]c3ccccc23)CC1` [Compound 162], with “+− (+− = pIC50 <4.00)”; and `CC(C)OCC(=O)N1CC=C(c2c[nH]c3cc(F)ccc23)CC1` [Compound 163], with “+ (+ = pIC50 4.00-4.99)”.
Still for that read-out and setting: the value for `NS(=O)(=O)N1CC=C(c2c[nH]c3cc(F)ccc23)CC1` [Compound 164] was “+− (+− = pIC50 <4.00)”; that for `CC(=O)N1CC=C(c2c[nH]c3ccc(Cl)cc23)CC1` [Compound 165] was “+ (+ = pIC50 4.00-4.99)”.
As to `CS(=O)(=O)N1CC=C(c2c[nH]c3ccc(Cl)cc23)CC1` [Compound 166], the “SKOV3 Kynurenine cell based assay pIC50” value is reported as “+ (+ = pIC50 4.00-4.99)”.
The same measure, in the same setting: the value for `CC(=O)N1CC=C(c2c[nH]c3cc(F)c(F)cc23)CC1` [Compound 167] was “+ (+ = pIC50 4.00-4.99)”; that for `CS(=O)(=O)N1CC=C(c2c[nH]c3cc(F)c(F)cc23)CC1` [Compound 168] was “+ (+ = pIC50 4.00-4.99)”; that for `CCn1ncc(S(=O)(=O)N2CCC3(CC2)C(=O)Nc2ccccc23)c1C` [Compound 173] was “+ (+ = pIC50 4.00-4.99)”.
As to `CC(=O)N1CCC(c2c[nH]c3ccncc23)CC1` [Compound 174], the “SKOV3 Kynurenine cell based assay pIC50” value is reported as “+ (+ = pIC50 4.00-4.99)”.
`CS(=O)(=O)N1CCC(c2c[nH]c3ccncc23)CC1` [Compound 175]: the “SKOV3 Kynurenine cell based assay pIC50” value is “+ (+ = pIC50 4.00-4.99)”.
Still for that read-out and setting: then `CS(=O)(=O)N1CCC(c2c[nH]c3cnccc23)CC1` [Compound 176], with “+ (+ = pIC50 4.00-4.99)”; and `CS(=O)(=O)N1CCC(C2C(=O)Nc3cc(F)ccc32)CC1` (centres unmarked) [Compound 178], with “++ (++ = pIC50 5.00-5.99)”.
Turning to `CC(=O)N1CCC(C2CNc3cc(F)ccc32)CC1` (centres unmarked) [Compound 179], the “SKOV3 Kynurenine cell based assay pIC50” value is “+− (+− = pIC50 <4.00)”.

The target in the next assay is Recombinant human IDO (Homo sapiens, UniProt P14902). In words: hIDO biochemical coupled assay. Conditions: 45 μM L-tryptophan, coupled with kynurenine formamidase. In outline: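 Recombinant human IDO incubated in 50 mM KPO4 (pH 7.0), 0.5 mM EGTA, 0.5 mM EDTA, 0.05% Triton X100, 20 mM ascorbate, 10 μM methylene blue, 500 U/ml catalase and 50 μg/ml kynurenine formamidase. N-formylkynurenine converted to kynurenine, quantified by fluorescence after Ehrlich's reagent.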
Sequence of Recombinant human IDO (P14902 whole entry): as above
Consider `CS(=O)(=O)N1CC=C(c2c[nH]c3cc(F)ccc23)CC1` [Compound 103], for which the “hIDO biocehmical assay pIC50” value is given as “+− (+− = pIC50 <4.00)”.
The same measure, in the same setting: then `CC(=O)N1CC=C(c2c(C)[nH]c3ccccc23)CC1` [Compound 104], with “+− (+− = pIC50 <4.00)”; and `CC(=O)N1CC=C(c2c[nH]c3ncccc23)CC1` [Compound 105], with “+− (+− = pIC50 <4.00)”.
On the same count and under the same terms, then `CC(C)C(=O)N1CCC(c2c[nH]c3ccccc23)CC1` [Compound 106], with “+− (+− = pIC50 <4.00)”; and `NS(=O)(=O)N1CC=C(c2c[nH]c3ccccc23)CC1` [Compound 162], with “+− (+− = pIC50 <4.00)”.
`CC(C)OCC(=O)N1CC=C(c2c[nH]c3cc(F)ccc23)CC1` [Compound 163]: the “hIDO biocehmical assay pIC50” value is on record as “+− (+− = pIC50 <4.00)”.
For the compound `NS(=O)(=O)N1CC=C(c2c[nH]c3cc(F)ccc23)CC1` [Compound 164], the “hIDO biocehmical assay pIC50” value was “+− (+− = pIC50 <4.00)”.
Regarding `CC(=O)N1CC=C(c2c[nH]c3ccc(Cl)cc23)CC1` [Compound 165], the “hIDO biocehmical assay pIC50” value is recorded as “+− (+− = pIC50 <4.00)”.
Same read-out and setting: then `CS(=O)(=O)N1CC=C(c2c[nH]c3ccc(Cl)cc23)CC1` [Compound 166], with “+− (+− = pIC50 <4.00)”; and `CC(=O)N1CC=C(c2c[nH]c3cc(F)c(F)cc23)CC1` [Compound 167], with “+− (+− = pIC50 <4.00)”.
Same read-out and setting: the value for `CS(=O)(=O)N1CC=C(c2c[nH]c3cc(F)c(F)cc23)CC1` [Compound 168] was “+− (+− = pIC50 <4.00)”; that for `CCn1ncc(S(=O)(=O)N2CCC3(CC2)C(=O)Nc2ccccc23)c1C` [Compound 173] was “+− (+− = pIC50 <4.00)”; that for `CC(=O)N1CCC(c2c[nH]c3ccncc23)CC1` [Compound 174] was “+− (+− = pIC50 <4.00)”.
Still for that read-out and setting: the value for `CS(=O)(=O)N1CCC(c2c[nH]c3ccncc23)CC1` [Compound 175] was “+− (+− = pIC50 <4.00)”.
Consider `CS(=O)(=O)N1CCC(c2c[nH]c3cnccc23)CC1` [Compound 176], for which the “hIDO biocehmical assay pIC50” value is given as “+− (+− = pIC50 <4.00)”.
On the same count and under the same terms, then `CS(=O)(=O)N1CCC(C2C(=O)Nc3cc(F)ccc32)CC1` (centres unmarked) [Compound 178], with “+− (+− = pIC50 <4.00)”; and `CC(=O)N1CCC(C2CNc3cc(F)ccc32)CC1` (centres unmarked) [Compound 179], with “+− (+− = pIC50 <4.00)”.
